Assay results as given in publication PMC11605291 (Frontiers in Pharmacology, 2024).

Experiments:
[1] = Metabolite profiling and identification in plasma, urine and feces (LC/RAM/MS); format: in vivo, human; design: key to Plasma %AUC (percentage of total plasma radioactivity) / Urine %Dose / Feces %Dose: +: No radioactive peaks were detected, but mass spectrometry peaks were detected; ND: not detectable; conditions: for Urine %Dose: pooled 0–72 h urine, total in urine 37.15%
Protocol: The plasma samples from six subjects were pooled individually according to the AUC method to obtain 6 plasma samples of 0–72 h ([Hop et al., 1998]). A portion of the proportionally mixed plasma sample was taken and added to a certain volume of acetonitrile (3×, v/v) for extraction, vortexed for 1 min, shaken for 10 min and then stored in a refrigerator at 4°C for 30 min, the mixture was removed and vortexed for 2 min and then centrifuged for 10 min at 10,000×g and 4°C. The residue from the extraction was firstly ultrasonically suspended using 1 mL of ultrapure water and then extracted using methanol (2×, v/v) and repeated twice. The organic solvent extracts were combined, blown dry with nitrogen and reconstituted with acetonitrile: ultrapure water (1:1), the reconstituted solution was centrifuged at 4°C and 10,000×g for 10 min, and the supernatant was used for radio-metabolite profiling.
The radioactivity in the organic solvent extract and the reconstitution solution was determined by LSC. The solid residue after extraction was dissolved by heating with 1N KOH solution and added to the scintillation solution to determine its radioactivity. All the final data were used to examine the recovery of radioactivity during plasma extraction.
The urine samples from the six subjects were mixed in the same volume percentage to obtain six 0–72 h urine samples. A portion of the proportionally mixed urine sample was centrifuged for 10 min at approximately 10,000×g and 4°C. Two samples were taken before and after centrifugation, and the radioactivity of the samples was determined by LSC, and the data obtained were used to calculate the recovery of radioactivity during the centrifugation process. A portion of the supernatant after centrifugation was used directly for radio-metabolite profiling.
The fecal samples from the six subjects were mixed with the same weight percentage to obtain 6 fecal homogenate samples of 0–168 h. A portion of the proportionally mixed fecal homogenate samples was taken and extracted by adding a volume of acetonitrile (3×, v/v), vortexed for 5 min at room temperature, sonicated for 5 min and then centrifuged for 10 min at 10,000 × g and 4°C. The residue of the extracted material was firstly sonicated and mixed using about 1 mL of ultrapure water before extracted using methanol (2×, v/v). The process was repeated twice and the organic extracts were combined, blown dry using nitrogen and then reconstituted with dimethyl sulfoxide: acetonitrile: ultrapure water (3:2:5), the reconstituted solution was centrifuged at 10,000×g at 4°C for 10 min and the supernatant was used for radio-metabolite profiling. […] LSC was used to determine the intensity of radioactivity contained in the organic solvent extract and in the reconstituted solution. The solid residue after extraction is fully combusted by an oxidative combustor, and the [^14C]carbon dioxide produced by combustion of the sample is captured with a scintillation solution to determine its radioactivity intensity. All final data were used to examine the extraction and recovery of radioactivity from fecal homogenate samples.
A high performance liquid chromatograph coupled with an online isotope detector and mass spectrometry (LC/RAM/MS) was used for the identification of radioactive metabolite profiles. The HPLC method consisted of an HPLC system (Shimadzu UFLC-20A-Lite), a chromatographic column (ACE Excel 3 C18, 150 × 4.6 mm id), mobile phase A (0.4% aqueous formic acid, pH = 3.2 adjusted with ammonia) and mobile phase B (acetonitrile) at a flow rate of 0.7 mL/min. The gradient was 0% B for the 0–5 min, 20% B from 15 min to 30 min, 22% B from 32 to 40 min, and 70%–100% B from 60 to 72 min. The column temperature was 28°C. […]

[2] = Total radioactivity in plasma and whole blood (LSC), pharmacokinetics and blood-to-plasma ratio; format: in vivo, human
Protocol: Six subjects were admitted to the clinical research center 1 day prior to dosing, with random urine and fecal samples collected as blank excretion controls. After fasting overnight for at least 10 h, a blank blood sample was collected after a regular breakfast (449 kcal, with ∼35% energy from fat) on Day 1. […] Scheduled collection of urine, feces, and blood samples, and safety monitoring proceeded until completion.
Venous blood samples were collected within 0.5 h prior to administration and at 0.5, 1, 1.5, 2, 3, 4, 6, 8, 12, 24, 36, 48, 72, and 96 h after administration. About 8 mL of blood was collected at each time point in the anticoagulant collection tube containing K2-EDTA. The centrifuged plasma was used for non-radioactive and radioactive pharmacokinetic and biotransformation (metabolite) analyses. In addition, about 2 mL of venous blood was collected within 0.5 h before administration and at 1, 4, 8, 12, 24, and 48 h after administration for whole blood radioactivity analysis. Additional 10 mL of venous blood for each time point was collected at 1, 4, 8, 12, 24, and 48 h after administration, and the plasma was obtained by centrifugation for biotransformation (metabolites) analysis. Urine and fecal samples were collected until 144 h (4 subjects) or 192 h (2 subjects) after administration.
Pharmacokinetic analysis was performed using Phoenix WinNonlin® software version 8.3. […] Descriptive statistics applied to parameters including maximum plasma concentration after administration (Cmax), the time to reach maximum plasma concentration after administration (Tmax), elimination rate constant (λz), area under the plasma concentration-time curve from the time 0 to the time of last quantifiable concentration (AUC0-t, obtained by the linear trapezoidal method), area under the plasma concentration-time curve from time 0 extrapolated to infinity (AUC0-∞, AUC0-∞ = AUC0-t + Ct/λ z ), half-life (t1/2, t1/2 = ln ([Lannutti et al., 2011])/λz), mean residence time (MRT, MRT = AUMC/AUC), apparent clearance (CL/F, CL/F = Dose/AUC0-∞), apparent volume of distribution based on terminal phase (Vz/F, Vz/F = Dose/(λz×AUC0-∞)).
Radioactivity was measured using an oxidative combustion apparatus and liquid scintillation counter (LSC). After the whole blood sample was vortexed thoroughly, two portions (about 0.5 g each) were weighed into the combustion boat, and after complete combustion by oxidative combustion apparatus, [^14C]carbon dioxide generated from the combustion of the samples was captured by scintillation solution and measured by liquid scintillation counter. After plasma samples were fully vortexed, one portion (approximately 0.5 g) was weighed into a scintillation vial, mixed well with the scintillation solution, and measured using a liquid scintillation counter. […]

[3] = total radioactivity in plasma, mean ± SD

C[C@H](Nc1ncnc(N)c1C#N)c1cc2ncc(Cl)n2nc1-c1ccccc1 [Amdizalisib]
F: %Dose in feces (Figure 4) [1]: 1.21% | P: %AUC in plasma (Figure 4) [1]: 51.45% | U: %Dose in urine (Figure 4) [1]: + | Plasma %AUC (percentage of total plasma radioactivity) ([1]; AUC-pooled 0–72 h plasma, mean of 6 subjects): 51.45 %AUC | Urine %Dose ([1]; mean of 6 subjects): + | Urine %Dose ([1]; mean of 6 subjects, listed as parent drug): detected only by mass spectrometry | Feces %Dose ([1]; pooled 0–168 h feces, mean of 6 subjects, total in feces 62.08%): 1.21 %Dose | %AUC in AUC-pooled plasma ([1]; subject 01001): 57.45 %AUC | %Dose in pooled feces ([1]; subject 01001): 0.77 %Dose | %AUC in AUC-pooled plasma ([1]; subject 01002): 65.57 %AUC | %Dose in pooled feces ([1]; subject 01002): 0.25 %Dose | %AUC in AUC-pooled plasma ([1]; subject 01003): 56.65 %AUC | %Dose in pooled feces ([1]; subject 01003): 1.93 %Dose | %AUC in AUC-pooled plasma ([1]; subject 01004): 59.14 %AUC | %Dose in pooled feces ([1]; subject 01004): 1.52 %Dose | %AUC in AUC-pooled plasma ([1]; subject 01005): 54.59 %AUC | %Dose in pooled feces ([1]; subject 01005): 2.32 %Dose | %AUC in AUC-pooled plasma ([1]; subject 01006): 15.32 %AUC | %Dose in pooled feces ([1]; subject 01006): 0.48 %Dose | average plasma total radioactivity concentration at 96 h post dose ([2]; still detectable in 4 subjects): 4.74 ng Eq./mL | AUC0-t of total radioactivity [2, 3]: 3,900 h ng Eq./mL | CL/F of total radioactivity [2, 3]: 7.25 L/h | Cmax of total radioactivity [2, 3]: 368 ng Eq./mL
